Measured values: US20120294826A1, “METHODS, KITS AND COMPOSITIONS FOR AMELIORATING ADVERSE EFFECTS ASSOCIATED WITH TRANSFUSION OF AGED RED BLOOD CELLS” (priority 2009, published 2012)

Key:
E. coli = assay: In vitro bacterial growth in plasma from transfused mice; assay type: cell-based
Method: Results shown in FIG. 15A are representative of two experiments. C57BL/6 mice were infused with a sub-clinical dose of LPS (E. coli 0111:B4; 30 μg per mouse by tail vein injection) followed by transfusion of 400 μL of fresh RBCs or stored RBCs. Mice were sacrificed at 24-hour post-transfusion and plasma cytokines measured (n=5 per group). *P=0.008, **P=0.003 as compared to mice infused LPS+ stored RBCs. To obtain the results shown in FIG. 15B, plasma (100 μL) was obtained from mice 2-hours post-transfusion with 400 μL of fresh RBCs (n=15), stored RBCs (n=24), stored RBC-derived supernatant (n=12), washed stored RBCs (n=13), or ghosts prepared from stored RBCs (n=8). Plasma was also obtained from control untransfused mice (n=14) or 24-hours post-transfusion with stored RBCs (n=8). Samples were incubated at 37° C. with shaking with about 1×10^6 CFU of E. coli, as labeled. Bacterial growth was monitored every 30 minutes by absorbance at 600 nm for up to 5 hours. […] To obtain the results shown in FIG. 15C, pooled plasma samples (100 μL) from mice 2 hours after transfusion with 400 μL of fresh RBCs or stored RBCs were supplemented with either ferric citrate (20 μM), sodium citrate (20 μM), bovine serum albumin (BSA; 80 μM), or protoporphyrin IX (20 μM), and then incubated at 37° C. with shaking with ˜1×10^6 CFU of E. coli. Bacterial growth was monitored every 30 minutes by absorbance at 600 nm for up to 5 hours in replicates of 5 per group. […] To obtain the results shown in FIG. 15D, pooled plasma (n=4) were incubated with the iron chelator, DFO (20 μM), or with the iron-chelated form of DFO, ferroxamine (FO) (20 μM) and inoculated with E. coli as shown for the previous experiment. […] To obtain the results shown in FIG. 15E, pooled plasma (n=5) was incubated with the iron chelator, 2,2′-dipyridyl (400 μM), with or without ferric citrate (133 μM) and inoculated with E. coli, as shown for the previous experiment. […] Results are representative of at least 2 experiments and are shown as mean (±SEM). Note that the absence of an error bar is indicative of highly reproducible replicates with pooled plasma.
A pathogenic strain of E. coli, obtained from an anonymous patient with a urinary tract infection, was used. For each experiment, a sample from a frozen stock of this E. coli was inoculated into Nutrient Broth (Difco, BD Biosciences) and grown to mid-log phase (about 3 hours). Bacteria were then washed twice in PBS and re-suspended to about 200,000 colony forming units (CFU)/μL. Five microliters of bacterial suspension were then added to 100 μL of heparinized plasma in a 96-well EIA/RIA plate (Costar, Sigma). Bacterial growth was measured by absorbance at 600 nm. In some experiments, 20 μM of ferric citrate or sodium citrate (Sigma), bovine serum albumin, 2,2′-dipyridyl (all from Sigma-Aldrich), protoporphyrin IX (Frontier Scientific, Logan, Utah), or DFO were added to plasma before bacterial inoculation.
Significance between two means was calculated using a two-tailed Mann-Whitney U test. Significance relevant to bacterial growth in vitro was determined by converting each growth curve to an area under the curve (AUC) value followed by a 2-tailed Mann-Whitney U test to compare mean AUC for each group. A value for P less than 0.05 was considered significant. Statistical analysis was performed using Prism 5 (GraphPad Software, Inc., La Jolla, Calif.).

[1] = system: pro-inflammatory response induced by stored RBC transfusions; assay: DFO or FO infusion immediately before stored RBC transfusion, plasma cytokine/chemokine levels (FIG. 16A, 19); assay type: in vivo, mice; details: 2 hours
Method: To obtain the results shown in FIG. 16A, mice were pretreated with a PBS vehicle control (n=28) or with 3 mg of DFO, with (n=15) or without (n=31) the addition of equimolar ferric citrate, immediately before transfusion with stored RBCs (400 μL). Mice were sacrificed 2 hours after transfusion, and plasma cytokine levels were measured; *P<0.05; **P<0.01; ***P<0.001 compared with mice infused with PBS vehicle and transfused stored RBCs. To obtain the results shown in FIG. 16B, bioluminescence was quantified for 24 hours after transfusion over the hepatosplenic region of SAA1-luciferase reporter mice transfused with 200 μL of fresh RBCs (n=3; •), the PBS vehicle control and stored RBCs (n=3; ▪), or 3 mg of DFO and stored RBCs (n=6; ▴); P=0.095 at 4 and 6 hours after transfusion comparing vehicle-treated and DFO-treated mice. […]
Mice were untreated or pretreated with 3 mg of DFO immediately before stored RBC transfusion (400 μL; n=14 per group). Mice were sacrificed 2-hours post-transfusion and plasma cytokine/chemokine levels measured. […]
RBCs (200 or 400 μL at 17.0-17.5 g/dL of hemoglobin; 1 or 2 equivalent human units, respectively) were transfused through the retro-orbital plexus of isoflurane-anesthetized mice. […] Survival was calculated by comparing the ratio of Dil- to DiO-labeled RBCs in the sample to the ratio in the transfuse itself. […]

[2] = in vivo; cited from earlier work
TNF-α = details: LPS-challenged mice; reference [119]; cited from earlier work
[3] = added to pooled plasma from mice transfused with fresh RBCs, 20 μM (bovine serum albumin 80 μM)

c1ccc(-c2ccccn2)nc1 [2,2′-dipyridyl]
bacterial growth (E. coli; 2,2′-dipyridyl 400 μM in pooled plasma from mice transfused with stored RBCs): greater inhibition of bacterial growth | inhibitory effect on bacterial growth (E. coli; 2,2′-dipyridyl preincubated with a one-third molar ratio of ferric citrate (133 μM)): abrogated

CC(=O)N(O)CCCCCNC(=O)CCC(=O)N(O)CCCCCNC(=O)CCC(=O)N(O)CCCCCN [DFO, deferoxamine]
plasma IL-6 levels ([1]; 3 mg (about 120 mg/kg) DFO i.v. immediately before stored RBCs, mean±s.e.m., without DFO 212.8±30.8, P=0.005): 98.4 ± 10.1 pg/mL | t1/2 [2]: 6 h

CC(=O)N([O-])CCCCCNC(=O)CCC(=O)N([O-])CCCCCNC(=O)CCC(=O)N([O-])CCCCCN.[Fe+3] [FO, ferroxamine]
bacterial growth (E. coli; 20 μM added to pooled plasma from mice transfused with stored RBCs, absorbance at 600 nm up to 5 hours): prevented the inhibition of bacterial growth | proinflammatory cytokine response ([1]; 3 mg DFO, or FO (equimolar DFO and ferric citrate), before stored RBCs (400 μL)): as effective as DFO | TNF-α levels (TNF-α): reduced TNF-α levels to a similar extent

O=C(O)c1ccc(-n2nc(-c3ccccc3O)nc2-c2ccccc2O)cc1 [deferasirox]
t1/2 [2]: 8 to 16 h

O=C([O-])CC(O)(CC(=O)[O-])C(=O)[O-].[Na+].[Na+].[Na+] [sodium citrate]
bacterial growth (E. coli; [3]): not

bovine serum albumin: bovine serum albumin control supplement
bacterial growth (E. coli; [3]): not

ferric citrate [iron citrate]
bacterial growth (E. coli; [3]): promoted to a similar level as in plasma from mice transfused with stored RBCs
